Here are results for 36 molecules from patent publication US6548494B1, “Tricyclic inhibitors of poly(ADP-ribose) polymerases” (Agouron Pharmaceuticals, Inc., priority 1999, dated 2003).

Values joined by “and” are separate entries in the source; they are usually repeats but may differ in a detail not shown here. Equal entries are not always repeated. Structures can show the parent of a compound that is named as a salt.

The target in this assay is purified PARP protein (Homo sapiens, UniProt P09874). Nature of the assay: PARP enzyme inhibition assay. In kind it is biochemical. To be noted: 20 nM purified PARP (5 nM for tight-binding inhibitors), 500 μM NAD+, 25° C.; several values in one cell = repeat determinations; read-out: Inhibition Constant Ki.
purified PARP protein, sequence (P09874 whole entry): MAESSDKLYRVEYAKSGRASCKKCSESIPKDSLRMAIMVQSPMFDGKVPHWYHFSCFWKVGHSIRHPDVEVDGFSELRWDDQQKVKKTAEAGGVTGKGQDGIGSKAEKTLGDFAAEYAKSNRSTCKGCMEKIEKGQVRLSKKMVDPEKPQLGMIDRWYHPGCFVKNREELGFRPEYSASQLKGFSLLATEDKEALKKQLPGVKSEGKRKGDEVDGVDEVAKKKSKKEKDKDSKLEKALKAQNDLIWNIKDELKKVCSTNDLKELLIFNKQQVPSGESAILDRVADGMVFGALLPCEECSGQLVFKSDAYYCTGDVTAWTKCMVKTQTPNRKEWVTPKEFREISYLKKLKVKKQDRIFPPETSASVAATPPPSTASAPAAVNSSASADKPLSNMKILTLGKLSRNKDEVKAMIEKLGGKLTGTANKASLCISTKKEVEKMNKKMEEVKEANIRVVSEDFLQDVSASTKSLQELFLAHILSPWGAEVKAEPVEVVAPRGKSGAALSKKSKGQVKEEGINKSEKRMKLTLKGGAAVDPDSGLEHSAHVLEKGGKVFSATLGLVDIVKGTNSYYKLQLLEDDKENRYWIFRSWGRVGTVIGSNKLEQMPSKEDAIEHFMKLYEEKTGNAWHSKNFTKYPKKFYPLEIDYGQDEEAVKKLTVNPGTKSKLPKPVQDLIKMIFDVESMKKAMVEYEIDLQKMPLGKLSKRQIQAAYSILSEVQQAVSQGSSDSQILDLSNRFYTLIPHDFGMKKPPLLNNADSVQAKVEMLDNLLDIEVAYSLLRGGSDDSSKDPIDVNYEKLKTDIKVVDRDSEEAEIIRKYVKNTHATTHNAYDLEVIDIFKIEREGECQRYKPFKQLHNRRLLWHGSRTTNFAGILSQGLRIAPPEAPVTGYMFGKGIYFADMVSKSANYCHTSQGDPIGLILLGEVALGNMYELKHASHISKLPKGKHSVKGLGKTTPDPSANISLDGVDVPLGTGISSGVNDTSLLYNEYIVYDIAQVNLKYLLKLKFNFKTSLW
As for `Cc1ccc(C)n1Cc1ccc(-c2nc3cccc4c3n2CCNC4=O)cc1` [Example 244, 1-[4-(2,5-Dimethyl-pyrrol-1-ylmethyl)-phenyl]-8,9-dihydro-7H-2,7,9a-triaza-benzo[cd]azulen-6-one], the Ki was found to be 14 nM.

As to `O=C1N[C@@H](COCc2ccccc2)Cn2c(-c3ccc(CO)cc3)nc3cccc1c32` [Example 238a, (R)-8-Benzyloxymethyl-1-(4-hydroxymethyl-phenyl)-8,9-dihydro-7H-2,7,9a-triaza-benzo[cd]azulen-6-one], the Ki came to 30.7 nM.

Regarding `O=C1NCCn2c(-c3ccc(CNC4CCc5ccccc54)cc3)nc3cccc1c32` (stereo not drawn) [Example 192, 1-[4-(Indan-1-ylaminomethyl)-phenyl]-8,9-dihydro-7H-2,7,9a-triaza-benzo[cd]azulen-6-one], the Ki worked out at 4.5 nM.

For the molecule `CN(Cc1ccccc1)Cc1ccc(-c2nc3cccc4c3n2CCNC4=O)cc1` [Example 199, 1-[4-(Benzyl-methyl-amino-methyl)-phenyl]-8,9-dihydro-7H-2,7,9a-triaza-benzo[cd]azulen-6-one], the Ki is 6.8 nM.

Turning to `O=C1NCCn2c(-c3ccc(CN4CCC(O)C4)cc3)nc3cc(F)cc1c32` (stereo not drawn) [Example 172, 4-Fluoro-1-[4-(3-hydroxy-pyrrolidin-1-ylmethyl)-phenyl]-8,9-dihydro-7H-2,7,9a-triaza-benzo[cd]azulen-6-one], the Ki is 4.6 nM.

On to `CC(C)CC(c1ccc(-c2nc3cccc4c3n2CCNC4=O)cc1)N(C)C` (stereo not drawn) [Example 231, 1-[4-(Dimethylamino-methyl-butyl)-phenyl]-8,9-dihydro-7H-2,7,9a-triaza-benzo[cd]azulen-6-one], for which the Ki is 6.9 nM.

In the case of `O=C1NCCn2c(-c3ccc(CN4CCC[C@@H]4CO)cc3)nc3cccc1c32` [Example 173, 1-[4-((2R)-2-Hydroxymethyl-pyrrolidin-1-ylmethyl)-phenyl]-8,9-dihydro-7H-2,7,9a-triaza-benzo[cd]azulen-6-one], the Ki turned out to be 6.3 nM.

With `CN(CCc1ccccn1)Cc1ccc(-c2nc3cccc4c3n2CCNC4=O)cc1` [Example 202, 1-(4-{[Methyl-(2-pyridin-2-yl-ethyl)-amino]-methyl}-phenyl)-8,9-dihydro-7H-2,7,9a-triaza-benzo[cd]azulen-6-one], the Ki was determined as 3.2 nM.

Turning to `CNCc1ccc(-c2nc3cccc4c3n2C[C@H](C)NC4=O)cc1` [Example 222, (S)-8-Methyl-1-(4-methylaminomethyl-phenyl)-8,9-dihydro-7H-2,7,9a-triaza-benzo[cd]azulen-6-one], the Ki was 2 nM and 2.3 nM and 3.5 nM.

As for `O=C1NCCN2CCc3cccc1c32` [Example 41, 3,4,6,7-Tetrahydro-2H-[1,4]diazepino[6,7,1-hi]indol-1-one, reference compound], the Ki is 54 nM and 60 nM.

Consider `O=C1NCCn2c(-c3ccc(CN4CCc5ccccc5C4)cc3)nc3cccc1c32` [Example 198, 1-[4-(3,4-Dihydro-1H-isoquinolin-2-ylmethyl)-phenyl]-8,9-dihydro-7H-2,7,9a-triaza-benzo[cd]azulen-6-one], for which the Ki was 7.9 nM.

Consider `Cc1c(-c2cccc(C(F)(F)F)c2)n2c3c(cccc13)C(=O)NCC2` [Example 52, 6-(3-Trifluoromethyl-phenyl)-7-methyl-3,4-dihydro-2H-[1,4]diazepino[6,7,1-hi]indol-1-one], for which the Ki turned out to be 79 nM.

For `CC(C)CN(C)Cc1ccc(-c2nc3cccc4c3n2CCNC4=O)cc1` [Example 187, 1-{4-[(Isobutyl-methyl-amino)-methyl]-phenyl}-8,9-dihydro-7H-2,7,9a-triaza-benzo[cd]azulen-6-one], the Ki amounted to 7 nM.

As to `Cc1cn2c3c(cccc13)C(=O)NCC2` [Example 49, 7-Methyl-3,4-dihydro-2H-[1,4]diazepino[6,7,1-hi]indol-1-one], the Ki was found to be 122 nM.

Consider `C[C@H]1Cn2c(-c3ccc(CN(C)C)cc3)nc3cccc(c32)C(=O)N1` [Example 221, (S)-1-(4-Dimethylaminomethyl-phenyl)-8-methyl-8,9-dihydro-7H-2,7,9a-triaza-benzo[cd]azulen-6-one], for which the Ki amounted to 5 nM.

Turning to `O=C1N[C@@H](CO)Cn2c(-c3ccc(CN4CCCC4)cc3)nc3cccc1c32` [Example 241, (R)-8-Hydroxymethyl-1-(4-pyrrolidin-1-ylmethyl-phenyl)-8,9-dihydro-7H-2,7,9a-triaza-benzo[cd]azulen-6-one], the Ki was determined as 6.8 nM.

In the case of `CC(C)CC(c1ccc(-c2nc3cccc4c3n2CCNC4=O)cc1)N1CC=CC1` (stereo not drawn) [Example 229, 1-{4-[1-(2,5-Dihydro-pyrrol-1-yl)-3-methyl-butyl]-phenyl}-8,9-dihydro-7H-2,7,9a-triaza-benzo[cd]azulen-6-one], the Ki is 5.3 nM and 6.8 nM.

Take `COC[C@@H]1CC[C@@H](COC)N1Cc1ccc(-c2nc3cccc4c3n2CCNC4=O)cc1` [Example 216, 1-[4-((2S,5S)-2,5-bis-Methoxymethyl-pyrrolidin-1-ylmethyl)-phenyl]-8,9-dihydro-7H-2,7,9a-triaza-benzo[cd]azulen-6-one]: the inhibitory constant (Ki) was 27 nM.

For `CC(C)(C)OC(=O)[C@H]1CCCN1Cc1ccc(-c2nc3cccc4c3n2CCNC4=O)cc1` [Example 218, (R)-1-[4-(6-oxo-6,7,8,9-Tetrahydro-2,7,9a-triaza-benzo[cd]azulen-1-yl)-benzyl]-pyrrolidine-2-carboxylic Acid tert-Butyl Ester], the Ki stood at 17 nM.

As to `CN1CCCC1CCNCc1ccc(-c2nc3cccc4c3n2CCNC4=O)cc1` (stereo not drawn) [Example 194, 1-(4-{[2-(1-Methyl-pyrrolidin-2-yl)-ethylamino]-methyl}-phenyl)-8,9-dihydro-7H-2,7,9a-triaza-benzo[cd]azulen-6-one], the Ki turned out to be 6.2 nM.

Turning to `Nc1nc2cccc3c2n1CCNC3=O` [Example 146, 1-Amino-8,9-dihydro-7H-2,7,9a-triaza-benzo[cd]azulen-6-one Hydrochloride], the Ki was determined as 35 nM.

On to `O=C1NCCn2c(-c3ccc(CN4CC=CCC4)cc3)nc3cccc1c32` [Example 182, 1-[4-(3,6-Dihydro-2H-pyridin-1-ylmethyl)-phenyl]-2,7,8,9-tetrahydro-2,7,9a-triaza-benzo[cd]azulen-6-one], for which the Ki was determined as 4.7 nM.

For the molecule `Cc1ccc(CNCc2ccc(-c3nc4cccc5c4n3CCNC5=O)cc2)o1` [Example 195, 1-(4-{[(5-Methyl-furan-2-ylmethyl)-amino]-methyl}-phenyl)-8,9-dihydro-7H-2,7,9a-triaza-benzo[cd]azulen-6-one], the Ki was 4.7 nM and 5.9 nM.

`O=C1NCCn2c(-c3ccc(Cn4cccc4)cc3)nc3cccc1c32` [Example 220, 1-(4-Pyrrol-1-ylmethyl-phenyl)-8,9-dihydro-7H-2,7,9a-triaza-benzo[cd]azulen-6-one]: the Ki stood at 4 nM.

Regarding `CN(CCc1ccccc1)Cc1ccc(-c2nc3cccc4c3n2CCNC4=O)cc1` [Example 179, 1-{4-[(Methyl-phenethyl-amino)-methyl]-phenyl}-2,7,8,9-tetrahydro-2,7,9a-triaza-benzo[cd]azulen-6-one], the inhibition constant (Ki) came out at 5.6 nM.

With `O=C1NCCn2c(-c3ccc(CN4CCC[C@H]4CO)cc3)nc3cccc1c32` [Example 181, 1-[4-((2S)-2-Hydroxymethyl-pyrrolidin-1-ylmethyl)-phenyl]-2,7,8,9-tetrahydro-2,7,9a-triaza-benzo[cd]azulen-6-one], the Ki was 3.9 nM.

Regarding `CC(C)CC(c1ccc(-c2nc3cccc4c3n2CCNC4=O)cc1)N1CCCC1` (stereo not drawn) [Example 230, 1-[4-(3-Methyl-1-pyrrolidin-1-yl-butyl)-phenyl]-8,9-dihydro-7H-2,7,9a-triaza-benzo[cd]azulen-6-one], the Ki turned out to be 5.3 nM.

Take `N#Cc1ccc(-c2nc3cccc4c3n2CCNC4=O)cc1` [Example 227, 4-(6-oxo-6,7,8,9-Tetrahydro-2,7,9a-triaza-benzo[cd]azulen-1-y)-benzonitrile]: the Ki was found to be 2.2 nM.

On to `CC(C)CC(O)c1ccc(-c2nc3cccc4c3n2CCNC4=O)cc1` (stereo not drawn) [Example 228, 1-[4-(1-Hydroxy-3-methyl-butyl)-phenyl]-8,9-dihydro-7H-2,7,9a-triaza-benzo[cd]azulen-6-one], for which the Ki worked out at 4.6 nM.

Consider `COc1ccc(C2CNC(=O)c3cccc4nc(-c5ccc(Cl)cc5)n2c34)cc1` (racemic) [Example 54, (RS)-(±)-1-(4-Chloro-phenyl)-9-(4-methoxy-phenyl)-8,9-dihydro-7H-2,7,9a-triaza-benzo[cd]azulen-6-one], for which the Ki was 600 nM.

For the molecule `O=C1NCCn2c(-c3ccc(C4CCCCN4CC4CC4)cc3)nc3cccc1c32` (stereo not drawn) [Example 150, 1-[4-(1-Cyclopropylmethyl-piperidin-2-yl)-phenyl]-8,9-dihydro-7H-2,7,9a-triaza-benzo[cd]azulen-6-one], the Ki was 5 nM.

As to `O=C1NCCn2c(-c3ccc(CNCc4ccc5c(c4)OCO5)cc3)nc3cccc1c32` [Example 191, 1-(4-{[(Benzo[1,3]dioxol-5-ylmethyl)-amino]-methyl}-phenyl)-8,9-dihydro-7H-2,7,9a-triaza-benzo[cd]azulen-6-one], the Ki was 4.3 nM.

As to `COc1ccc(C2CNC(=O)c3cccc4[nH]c(=O)n2c34)cc1` (racemic) [Example 53, (RS)-(±)-9-(4-Methoxy-phenyl)-8,9-dihydro-2H,7H-2,7,9a-triaza-benzo[cd]azulene-1,6-dione], the Ki stood at 1800 nM.

For `CN(C)Cc1ccc(-c2nc3cccc4c3n2C[C@H](CO)NC4=O)cc1` [Example 238, (R)-1-(4-Dimethylaminomethyl-phenyl)-8-hydroxymethyl-8,9-dihydro-7H-2,7,9a-triaza-benzo[cd]azulen-6-one], the Ki turned out to be 7.3 nM.

Turning to `N#CCc1ccc(-c2nc3cccc4c3n2CCNC4=O)cc1` [Example 242, [4-(6-oxo-6,7,8,9-Tetrahydro-2,7,9a-triaza-benzo[cd]azulen-1-yl)-phenyl]-acetonitrile], the Ki stood at 3.4 nM.

As to `CN(Cc1ccc(-c2nc3cccc4c3n2CCNC4=O)cc1)CC(O)CO` (stereo not drawn) [Example 176, 1-(4-{[(2,3-Dihydroxy-propyl)-methyl-amino]-methyl}-phenyl)-8,9-dihydro-7H-2,7,9a-triaza-benzo[cd]azulen-6-one], the Ki turned out to be 9 nM.

Usually Ki stands for the equilibrium dissociation constant of an inhibitor or competing ligand from its target.
